Kd data for one molecule are collected here from paper PMC6721044, “Ratiometric BRET Measurements of ATP with a Genetically-Encoded Luminescent Sensor” (Sensors (Basel, Switzerland), 2019).

For this assay, the target named is T1, ARSeNL (mScarlet-ε-NanoLuc); ε subunit of the ATP synthase from Bacillus subtilis (Bacillus subtilis, UniProt P37812).
T1 construct: gene atpC; isolated ε subunit (from ATeam1.03) flanked by N-terminal mScarlet and C-terminal NanoLuc as reporters
Description: BRET ratio (mScarlet/NanoLuc) dose-response, microplate reader, Hill fit. It counts as binding. The conditions noted are these: read-out: KD (apparent). In general terms: In BRET a luciferase serves as donor, and the signal depends on an acceptor being close.

T1 sequence (P37812 whole entry): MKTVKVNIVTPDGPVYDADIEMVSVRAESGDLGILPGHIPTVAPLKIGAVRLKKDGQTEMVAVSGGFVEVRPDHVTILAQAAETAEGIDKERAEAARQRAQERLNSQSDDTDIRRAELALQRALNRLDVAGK

`Nc1ncnc2c1ncn2[C@@H]1O[C@H](COP(=O)(O)OP(=O)(O)OP(=O)(O)O)[C@@H](O)[C@H]1O` [ATP]: the Kd stood at 1100 ± 100 µM.
